Experimental data reported in patent EP3466279B1, “PRODUCTION METHOD OF COMPOSITION USING INSECT AS A RAW MATERIAL” (National University Corporation Ehime University, priority 2016, dated 2017).

What was measured:
[1] = tested on: mouse macrophage cell line (RAW264 cells); experiment: Immunosuppressive action: inhibition of LPS-induced nitrogen monoxide production; type: cell-based; conditions: LPS 100 ng/mL; 1,2-benzenediol 0 µg/mL to 10 µg/mL; FIG. 4
Procedure: A substance contained in Antheraea yamamai pupae and Bombyx mori pupae and having an immunosuppressive action on humans or animals having ate the insects was identified. Distilled water was added to a dry powder of Antheraea yamamai pupae and a dried powder of Bombyx mori pupae and the mixture was stirred and centrifugally separated to obtain the supernatant. Ethyl acetate was added to the resultant supernatant to cause liquid-liquid partition, and the resultant ethyl acetate layer was evaporated to dryness by distilling off the solvent with a rotary evaporator. Distilled water was added to the residue, which was added to a C18 solid phase column, and the flow-through fraction was recovered. The resultant flow-through fraction was eluted with high performance liquid chromatography (Develosil C30 column), and the immunosuppressive action of each eluted fraction obtained was measured. […]
Whether 1,2-benzenediol identified from Antheraea yamamai pupae and Bombyx mori pupae has an immunosuppressive action or not was evaluated by the production of nitrogen monoxide from a mouse macrophage cell line (RAW264 cells) as an indicator.

[2] = tested on: mouse macrophage cell line (RAW264 cells); type: cell-based

Oc1ccccc1O [1,2-benzenediol]
inhibition of nitrogen monoxide production [1]: inhibition of nitrogen monoxide production was observed depending on the concentration
growth inhibition of a mouse macrophage cell line (concentration at which confirmed) [2]: ≥ 1 µg/mL
